Test results reported in US20220315532A1, “METHODS FOR PREPARING CDK4/6 INHIBITOR AND SALT AND INTERMEDIATE THEREOF” (Gan & Lee Pharmaceuticals Co., Ltd., priority 2019, published 2022).

What was measured:
Format in all cases: physicochemical
solubility in water = conditions: compared with the free base
[1] = solubility in simulated intestinal fluid (FaSSIF, FeSSIF); conditions: compared with the free base
[2] = hygroscopicity and crystalline form after moisture absorption
[3] = physical and chemical stability under high humidity and illumination; conditions: compared with free base

solubility in water (solubility in water): higher solubility
solubility in fasted state simulated intestinal fluid (FaSSIF) [1]: higher solubility
crystalline form stability ([2]; after moisture absorption): stable in crystalline form
physical and chemical stability [3]: better physical and chemical stability
SMILES: CC1=Nc2c(F)cc(-c3nc(Nc4ccc(C5CCN(C)CC5)cn4)ncc3F)cc2C12CCCC2.O=C(O)/C=C/C(=O)O [fumarate, fumarate of 5-fluoro-4-(7′-fluoro-2′-methylspiro[cyclopentane-1,3′-indol]-5′-yl)-N-(5-(1-methylpiperidin-4-yl)pyridin-2-yl)pyrimidin-2-amine]
hygroscopicity ([2]; compared with the free base): low hygroscopicity comparable to the free base
